Earlier results on one compound are cited in patent publication US20140303227A1, “TRANSMUCOSAL HORMONE DELIVERY SYSTEM” (Pharmaceutical Productions Inc., priority 2013, published 2014).

Structures are written as SMILES.

The conditions of this data set: pH 6.8.

Consider `CN1CCCC1c1cccnc1` (stereo not shown) [nicotine], for which the “nicotine in the free base form” value was “about 10%”.
